Literature values as cited in patent publication US10898503B2, “Cleavable drug conjugates, compositions thereof and methods of use” (priority 2013, dated 2021).
Like-named read-outs stand apart in the source and are kept apart here.

Key:
[1] = patients
[2] = in vivo

Molecule | chance of developing cardiomyopathy ([1]; cumulative dose of 300 mg/m^2) | chance of developing cardiomyopathy ([1]; cumulative dose of 400 mg/m^2) | chance of developing cardiomyopathy ([1]; cumulative dose of 450 mg/m^2) [%] | chance of developing cardiomyopathy ([1]; cumulative dose of 500 mg/m^2) | half-life [2]
COc1cccc2c1C(=O)c1c(O)c3c(c(O)c1C2=O)C[C@@](O)(C(=O)CO)C[C@@H]3O[C@H]1C[C@H](N)[C@H](O)[C@H](C)O1 [Doxorubicin] | 1-2% | 3-5% | 5 to 8 | 6-20% | –
enfuvirtide | – | – | – | – | four
